From patent US10941158B2, “Pyrazole ACC inhibitors and uses thereof” (Gilead Apollo, LLC, priority 2015, dated 2021)
pIC50: −log10 of the molar value. Values after ≈ are worked out from the molar mass of the structure shown. Where two headings read alike, the source gives them in different places.

How the values were obtained:
C. krusei ATCC 6258 = test: Anti-Fungal (Candida) Activity Assay, broth microtiter MIC; type: cell-based; details: Pichia kudriavzevii, read-out: MIC C. krusei ATCC 6258
Procedure, shortened: (§1)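 Test compounds were dissolved in DMSO at 1 mg/mL (stock) and challenged against direct colony suspensions in RPMI 1640 with MOPS under CLSI M27-A3 broth microdilution. Growth was judged by eye relative to drug-free control after 48 h.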

C. albicans ATCC 90028 = test: as above; type: cell-based; details: read-out: MIC C. albicans ATCC 90028
Procedure, shortened: as §1

[1] = tested on: C. parapsilosis ATCC 22019; test: as above; type: cell-based; details: Lodderomyces parapsilosis, read-out: MIC C. parapsilosis ATCC 22019
Procedure, shortened: as §1

Rhizoctonia solani (Rs) = test: Growth inhibition assay of fungal pathogens; type: cell-based; details: 48 h, read-out: Concentration at 90% Inhibition Rs
Procedure, shortened: (§2)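 Percent growth inhibition was derived from 48 h OD600 and visual scores relative to 2% DMSO, with blank background subtraction. Fungi were grown from spores in 17% V8 liquid medium, R. solani from 1.5 mm plugs in ¼ PDB, with compound at final 50/10/2 or 2/0.4/0.08 ppm.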

[2] = tested on: Phytophthora capsici (Pc); test: Growth inhibition assay of fungal pathogens; type: cell-based; details: for IC90: Phytophthora capsici, read-out: Concentration at 90% Inhibition Pc
Procedure, shortened: (§3)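 Liquid-culture assay in which test compounds are applied at three final concentrations (50, 10, 2 ppm or 2, 0.4, 0.08 ppm). Inoculum levels follow 48 h growth curves for each fungus. Growth is monitored by OD600 and by eye, and the 48 h values give % inhibition against DMSO.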

[3] = tested on: Fusarium virguliforme (Fv); test: Growth inhibition assay of fungal pathogens; type: cell-based; details: 48 h
Procedure, shortened: as §3

[4] = tested on: Collectotrichum graminicola (Cg); test: Growth inhibition assay of fungal pathogens; type: cell-based; details: 48 h, read-out: Concentration at 90% Inhibition Cg
Procedure, shortened: as §3

Botrtyis cinerea (Bc) = test: Growth inhibition assay of fungal pathogens; type: cell-based; details: 48 h, read-out: Concentration at 90% Inhibition Bc
Procedure, shortened: as §2

Diplodia maydis (Dm) = test: Growth inhibition assay of fungal pathogens; type: cell-based; details: Stenocarpella maydis, 48 h, read-out: Concentration at 90% Inhibition Dm
Procedure, shortened: as §2

Septoria tritici (St) = test: Growth inhibition assay of fungal pathogens; type: cell-based; details: for IC90: Zymoseptoria tritici, read-out: Concentration at 90% Inhibition St
Procedure, shortened: as §3

[5] = tested on: Fusarium moniliforme (Fm); test: Growth inhibition assay of fungal pathogens; type: cell-based; details: for IC90: Fusarium verticillioides, 48 h, read-out: Concentration at 90% Inhibition Fm
Procedure, shortened: as §2

human (hACC2) ACC2 = human (hACC2) ACC2 (Homo sapiens, UniProt O00763); test: In vitro Acetyl-CoA Carboxylase (ACC) inhibition assay (ADP-Glo), hACC2; type: biochemical
Chain of human (hACC2) ACC2 (O00763 whole entry): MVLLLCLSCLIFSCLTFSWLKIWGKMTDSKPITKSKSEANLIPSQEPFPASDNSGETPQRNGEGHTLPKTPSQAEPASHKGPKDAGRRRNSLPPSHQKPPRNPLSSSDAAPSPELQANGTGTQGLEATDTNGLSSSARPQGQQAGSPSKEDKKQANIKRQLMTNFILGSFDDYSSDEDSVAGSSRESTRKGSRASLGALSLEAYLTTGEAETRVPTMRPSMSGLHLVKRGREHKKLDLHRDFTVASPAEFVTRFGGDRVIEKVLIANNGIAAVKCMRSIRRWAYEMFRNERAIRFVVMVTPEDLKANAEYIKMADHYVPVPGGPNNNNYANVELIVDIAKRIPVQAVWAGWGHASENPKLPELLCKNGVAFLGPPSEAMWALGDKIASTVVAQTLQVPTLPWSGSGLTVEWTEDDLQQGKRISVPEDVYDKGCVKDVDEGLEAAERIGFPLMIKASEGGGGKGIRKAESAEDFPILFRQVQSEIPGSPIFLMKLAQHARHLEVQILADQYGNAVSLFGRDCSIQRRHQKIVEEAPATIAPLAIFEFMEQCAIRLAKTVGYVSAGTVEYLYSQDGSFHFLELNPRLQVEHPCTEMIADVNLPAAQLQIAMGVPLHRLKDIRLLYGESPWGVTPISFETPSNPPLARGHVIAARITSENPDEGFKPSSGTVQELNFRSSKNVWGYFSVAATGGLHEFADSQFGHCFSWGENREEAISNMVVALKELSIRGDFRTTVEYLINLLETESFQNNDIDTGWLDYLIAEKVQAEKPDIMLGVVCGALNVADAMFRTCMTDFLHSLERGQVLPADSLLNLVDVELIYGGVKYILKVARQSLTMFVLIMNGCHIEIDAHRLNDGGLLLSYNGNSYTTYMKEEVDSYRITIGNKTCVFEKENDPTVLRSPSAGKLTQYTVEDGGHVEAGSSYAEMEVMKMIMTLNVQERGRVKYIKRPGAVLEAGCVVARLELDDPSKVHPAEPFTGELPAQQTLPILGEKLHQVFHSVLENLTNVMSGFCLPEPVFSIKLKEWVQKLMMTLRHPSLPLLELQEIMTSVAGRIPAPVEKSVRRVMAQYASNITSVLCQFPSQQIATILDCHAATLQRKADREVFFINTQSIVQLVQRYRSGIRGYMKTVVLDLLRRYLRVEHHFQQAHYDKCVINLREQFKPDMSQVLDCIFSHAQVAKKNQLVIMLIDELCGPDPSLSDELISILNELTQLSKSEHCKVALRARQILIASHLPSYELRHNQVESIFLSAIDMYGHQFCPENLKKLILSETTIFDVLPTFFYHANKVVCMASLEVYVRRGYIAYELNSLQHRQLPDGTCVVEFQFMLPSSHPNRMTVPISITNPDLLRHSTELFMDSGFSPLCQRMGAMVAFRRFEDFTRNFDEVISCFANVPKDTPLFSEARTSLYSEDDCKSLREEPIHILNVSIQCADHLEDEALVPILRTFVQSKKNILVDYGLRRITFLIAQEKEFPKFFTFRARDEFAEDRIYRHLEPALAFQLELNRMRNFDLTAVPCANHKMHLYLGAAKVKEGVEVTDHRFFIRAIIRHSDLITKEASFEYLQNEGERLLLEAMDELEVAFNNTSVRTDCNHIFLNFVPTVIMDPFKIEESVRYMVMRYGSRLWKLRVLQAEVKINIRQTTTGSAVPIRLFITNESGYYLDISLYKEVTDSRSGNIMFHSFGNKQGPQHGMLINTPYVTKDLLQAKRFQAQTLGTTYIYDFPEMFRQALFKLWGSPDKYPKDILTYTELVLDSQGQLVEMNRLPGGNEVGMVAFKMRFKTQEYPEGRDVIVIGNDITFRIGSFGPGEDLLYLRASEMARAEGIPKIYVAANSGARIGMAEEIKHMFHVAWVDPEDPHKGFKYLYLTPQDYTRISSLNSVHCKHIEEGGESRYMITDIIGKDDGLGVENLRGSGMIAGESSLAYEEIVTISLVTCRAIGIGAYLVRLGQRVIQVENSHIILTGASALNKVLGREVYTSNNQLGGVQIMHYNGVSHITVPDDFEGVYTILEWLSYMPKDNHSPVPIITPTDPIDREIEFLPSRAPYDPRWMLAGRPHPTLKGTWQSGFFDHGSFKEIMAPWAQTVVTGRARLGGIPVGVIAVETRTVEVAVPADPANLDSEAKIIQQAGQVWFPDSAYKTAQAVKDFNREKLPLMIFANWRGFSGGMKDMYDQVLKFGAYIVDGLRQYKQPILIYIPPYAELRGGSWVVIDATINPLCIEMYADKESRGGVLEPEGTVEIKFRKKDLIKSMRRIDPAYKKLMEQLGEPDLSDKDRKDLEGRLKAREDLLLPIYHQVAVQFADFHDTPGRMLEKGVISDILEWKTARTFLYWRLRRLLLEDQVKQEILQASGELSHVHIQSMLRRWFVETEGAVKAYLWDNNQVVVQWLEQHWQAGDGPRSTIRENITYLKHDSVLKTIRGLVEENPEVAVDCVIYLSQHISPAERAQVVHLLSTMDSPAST
Procedure: The detailed procedure is as follows. […] 10 μL ADP glo reagent was added. […] 20 μL kinase detection reagent was added.
“NA” stands for “not assayed.”

[6] = read-out: Concentration at 90% Inhibition Fv, Table 4a, 48 hours
[7] = read-out: Concentration at 90% Inhibition Fv, Table 4b, 48 hours

## COc1ccccc1[C@H](Cn1c(=O)n(C(C)(C)C(=O)N2CCCCC2)c(=O)c2c(C)c(-n3cccn3)sc21)OC(C)C [Compound I-19, (R)-1-(2-isopropoxy-2-(2-methoxyphenyl)ethyl)-5-methyl-3-(2-methyl-1-oxo-1-(piperidin-1-yl)propan-2-yl)-6-(H-pyrazol-1-yl)thieno[2,3-d]pyrimidine-2,4(1H,3H)-dione]
C. krusei ATCC 6258; ATCC6258, 48 h
  MIC: 2.1 to 4 µg/mL (≈ 3.54 to 6.74 µM)
C. albicans ATCC 90028; ATCC90028, 48 h
  MIC: > 4.1 µg/mL
[1]; ATCC22019, 48 h
  MIC: > 4.1 µg/mL
Rhizoctonia solani (Rs); Table 4a
  IC90: 2 µg/mL (≈ 3.37 µM)
Rhizoctonia solani (Rs); Table 4b
  IC90: 2 µg/mL (≈ 3.37 µM)
[2]; 48 h, Table 4a
  IC90: > 50 µg/mL
[2]; 48 h, Table 4b
  IC90: > 50 µg/mL
[3]; [6]
  IC90: 0.4 µg/mL (≈ 0.674 µM)
[3]; [7]
  IC90: 0.4 µg/mL (≈ 0.674 µM)
[4]; Table 4a
  IC90: 10 µg/mL (≈ 16.8 µM)
[4]; Table 4b
  IC90: 2 µg/mL (≈ 3.37 µM)
Botrtyis cinerea (Bc); Table 4a
  IC90: 0.4 µg/mL (≈ 0.674 µM)
Botrtyis cinerea (Bc); Table 4b
  IC90: 0.4 µg/mL (≈ 0.674 µM)
Diplodia maydis (Dm); Table 4a
  IC90: 2 µg/mL (≈ 3.37 µM)
Diplodia maydis (Dm); Table 4b
  IC90: 2 µg/mL (≈ 3.37 µM)
Septoria tritici (St); 48 h, Table 4a
  IC90: > 50 µg/mL
Septoria tritici (St); 48 h, Table 4b
  IC90: > 50 µg/mL
[5]
  IC90: 0.08 µg/mL (≈ 0.135 µM)
[5]; Table 4b, 48 hours
  Concentration at 90% Inhibition Fm: AA (“AA” provided a compound concentration of 0.08 ppm at 90% inhibition of fungal pathogens)
Human (hACC2) ACC2
  pIC50: 7.40 to 8.00

## COc1ccccc1[C@H](Cn1c(=O)n(C(C)(C)C(=O)NC(C)C)c(=O)c2c(C)c(-n3cccn3)sc21)OCC(C)C [Compound I-21, (R)-2-(1-(2-isobutoxy-2-(2-methoxyphenyl)ethyl)-5-methyl-2,4-dioxo-6-(1H-pyrazol-1-yl)-1,4-dihydrothieno[2,3-d]pyrimidin-3(2H)-yl)-N-isopropyl-2-methylpropanamide]
C. krusei ATCC 6258; ATCC6258, 48 h
  MIC: 0.25 to 1 µg/mL (≈ 0.43 to 1.72 µM)
C. albicans ATCC 90028; ATCC90028, 48 h
  MIC: 0.25 to 1 µg/mL (≈ 0.43 to 1.72 µM)
[1]; ATCC22019, 48 h
  MIC: 0.25 to 1 µg/mL (≈ 0.43 to 1.72 µM)
Rhizoctonia solani (Rs); Table 4a
  IC90: 2 µg/mL (≈ 3.44 µM)
Rhizoctonia solani (Rs); Table 4b
  IC90: 2 µg/mL (≈ 3.44 µM)
[2]; 48 h, Table 4a
  IC90: > 50 µg/mL
[2]; 48 h, Table 4b
  IC90: > 50 µg/mL
[3]; [6]
  IC90: > 50 µg/mL
[3]; [7]
  IC90: 10 µg/mL (≈ 17.2 µM)
[4]; Table 4a
  IC90: > 50 µg/mL
[4]; Table 4b
  IC90: 10 µg/mL (≈ 17.2 µM)
Botrtyis cinerea (Bc); Table 4a
  IC90: 2 µg/mL (≈ 3.44 µM)
Botrtyis cinerea (Bc); Table 4b
  IC90: 2 µg/mL (≈ 3.44 µM)
Diplodia maydis (Dm); Table 4a
  IC90: 10 µg/mL (≈ 17.2 µM)
Diplodia maydis (Dm); Table 4b
  IC90: 2 µg/mL (≈ 3.44 µM)
Septoria tritici (St); 48 h, Table 4a
  IC90: > 50 µg/mL
Septoria tritici (St); 48 h, Table 4b
  IC90: > 50 µg/mL
[5]
  IC90: 0.4 µg/mL (≈ 0.688 µM)
[5]; Table 4b, 48 hours
  Concentration at 90% Inhibition Fm: A (“A” provided a compound concentration of 0.4 ppm at 90% inhibition of fungal pathogens)
Human (hACC2) ACC2
  pIC50: 7.40 to 8.00

## COc1ccccc1[C@H](Cn1c(=O)n(C(C)(C)C(=O)N2CCCC2)c(=O)c2c(C)c(-n3cccn3)sc21)OCC(C)C [Compound I-22, (R)-1-(2-isobutoxy-2-(2-methoxyphenyl)ethyl)-5-methyl-3-(2-methyl-1-oxo-1-(pyrrolidin-1-yl)propan-2-yl)-6-(1H-pyrazol-1-yl)thieno[2,3-d]pyrimidine-2,4(1H,3H)-dione]
C. krusei ATCC 6258; ATCC6258, 3 replicates, MIC recorded at 48 h
  MIC: 0.25 to 1 µg/mL (≈ 0.421 to 1.68 µM)
C. albicans ATCC 90028; ATCC90028, 3 replicates, MIC recorded at 48 h
  MIC: 0.25 to 1 µg/mL (≈ 0.421 to 1.68 µM)
[1]; ATCC22019, 3 replicates, MIC recorded at 48 h
  MIC: 1.1 to 2 µg/mL (≈ 1.85 to 3.37 µM)
Rhizoctonia solani (Rs); Table 4a
  IC90: 2 µg/mL (≈ 3.37 µM)
Rhizoctonia solani (Rs); Table 4b
  IC90: 2 µg/mL (≈ 3.37 µM)
[2]; Table 4a, 48 hours
  IC90: > 50 µg/mL
[2]; Table 4b, 48 hours
  Concentration at 90% Inhibition Pc: D (“D” provided a compound concentration of >50 ppm at 90% inhibition of fungal pathogens)
[3]; Table 4a, 48 hours, read-out: Concentration at 90% Inhibition Fv
  IC90: > 50 µg/mL
[3]; Table 4b, 48 hours, read-out: Concentration at 90% Inhibition Fv
  IC90: 10 µg/mL (≈ 16.8 µM)
[4]; Table 4a
  IC90: 2 µg/mL (≈ 3.37 µM)
[4]; Table 4b
  IC90: 2 µg/mL (≈ 3.37 µM)
Botrtyis cinerea (Bc); Table 4a
  IC90: 2 µg/mL (≈ 3.37 µM)
Botrtyis cinerea (Bc); Table 4b
  IC90: 2 µg/mL (≈ 3.37 µM)
Diplodia maydis (Dm); Table 4a
  IC90: 2 µg/mL (≈ 3.37 µM)
Diplodia maydis (Dm); Table 4b
  IC90: 2 µg/mL (≈ 3.37 µM)
Septoria tritici (St); Table 4b, 48 hours
  Concentration at 90% Inhibition St: D (“D” provided a compound concentration of >50 ppm at 90% inhibition of fungal pathogens)
Septoria tritici (St); Table 4a, 48 hours
  IC90: > 50 µg/mL
[5]; Table 4a, 48 hours
  IC90: 2 µg/mL (≈ 3.37 µM)
[5]; Table 4b, 48 hours
  IC90: 0.4 µg/mL (≈ 0.674 µM)
Human (hACC2) ACC2
  pIC50: 8.00 to 8.52
